By IC50 is commonly meant the midpoint of a concentration-inhibition curve. A low value points to inhibition by little substance.

This passage reports IC50 results from BindingDB's records for doi:10.7270/Q2PR7TCX (The Scripps Research Institute Molecular Screening Center, 2007).

The assay has as its target Steroidogenic factor 1 (Homo sapiens, UniProt Q13285). In words: SF-1 inhibitors in Gal4 reporter counter-screen, dose response, counter-screen for RORA inhibitor project, cell-based, CHO-K1, Gal4-SF-1 LBD, luciferase luminescence (AID 611). For orientation: A counterscreen serves to expose hits that act by an unwanted route or on another target.
[1] abbreviates: inactive by the depositor's call.

Chain of Steroidogenic factor 1 (Q13285 whole entry, the tested form may be a part): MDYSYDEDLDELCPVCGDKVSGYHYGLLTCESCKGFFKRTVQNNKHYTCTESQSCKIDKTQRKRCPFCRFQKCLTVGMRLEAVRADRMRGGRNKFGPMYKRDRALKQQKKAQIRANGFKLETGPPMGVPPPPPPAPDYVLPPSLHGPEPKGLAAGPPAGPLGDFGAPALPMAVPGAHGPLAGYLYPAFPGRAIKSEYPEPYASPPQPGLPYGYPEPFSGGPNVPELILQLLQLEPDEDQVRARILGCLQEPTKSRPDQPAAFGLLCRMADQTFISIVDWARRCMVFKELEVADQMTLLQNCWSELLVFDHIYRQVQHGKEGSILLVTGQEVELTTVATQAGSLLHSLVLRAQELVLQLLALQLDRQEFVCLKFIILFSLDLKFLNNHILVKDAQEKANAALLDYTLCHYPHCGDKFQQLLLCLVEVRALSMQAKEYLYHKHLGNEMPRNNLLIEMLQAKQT

`Cc1cc(C(=O)Nc2cccc(C(=O)O)c2)oc1C` [3-[(4,5-dimethyl-2-furoyl)amino]benzoic acid]: the IC50 was found to be 2.16 µM.

Under setting [1], `Cc1cc(C)n2nc(SCC(=O)c3cc(C)n(-c4cc(C)on4)c3C)nc2n1` [1-[2,5-dimethyl-1-(5-methyl-1,2-oxazol-3-yl)pyrrol-3-yl]-2-[(5,7-dimethyl-[1,2,4]triazolo[1,5-a]pyrimidin-2-yl)sulfanyl]ethanone] had an IC50 of 16.8 µM. This counts as double-digit micromolar.

Turning to `Cc1cc(C(=O)CN2C(=O)c3ccccc3S2(=O)=O)c(C)n1CC1CCCO1` (centres undefined) [2-[2-[2,5-dimethyl-1-(2-oxolanylmethyl)-3-pyrrolyl]-2-oxoethyl]-1,1-dioxo-1,2-benzothiazol-3-one], the half-inhibitory concentration (IC50) was found to be 5.61 µM. This counts as single-digit micromolar.

Consider `CCn1c(C)nc2cc(-c3nc4n(n3)Cc3ccccc3-4)ccc21` [2-(1-ethyl-2-methyl-5-benzimidazolyl)-5H-[1,2,4]triazolo[5,1-a]isoindole], for which the IC50 is more than 0.00503 µM.

Molecule `CCOC(=O)CS(=O)(=O)c1nc(-c2ccc(F)cc2)cc(C(F)(F)F)n1` [2-[4-(4-fluorophenyl)-6-(trifluoromethyl)pyrimidin-2-yl]sulfonylacetic acid ethyl ester] returned an IC50 of 8.95 µM.

`Cc1nnc(SC(=O)N2c3ccccc3Sc3ccccc32)s1` [10-phenothiazinecarbothioic acid S-(5-methyl-1,3,4-thiadiazol-2-yl) ester] gave an IC50 of 6.07 µM. The IC50 values of the last two molecules are within 1.5-fold of each other.

`CCOc1ccc(-c2cc(CCCC(=O)NCc3ccco3)no2)cc1` [4-[5-(4-ethoxyphenyl)-1,2-oxazol-3-yl]-N-(furan-2-ylmethyl)butanamide]: the IC50 was more than 11 µM.

Consider `CCCCN(CCCC)S(=O)(=O)c1ccc(C(=O)Nc2nnc(CSC)o2)cc1` [4-(dibutylsulfamoyl)-N-[5-(methylsulfanylmethyl)-1,3,4-oxadiazol-2-yl]benzamide], for which, under setting [1], the half-inhibitory concentration (IC50) amounted to 24.4 µM.

The molecule `COc1ccc(-c2cc3nc4n(c(=O)c3s2)CCC4)cc1` [2-(4-methoxyphenyl)-6,7-dihydropyrrolo[1,2-a]thieno[3,2-d]pyrimidin-9(5H)-one] yielded a half-inhibitory concentration (IC50) of more than 3.67 µM.

`O=C(NCCOc1ccccc1)c1ccc2c(c1)OCO2` [MLS000100028] had an IC50 of 9.86 µM.

Turning to `CS(=O)(=O)c1nc(-c2cccs2)cc(C(F)(F)F)n1` [MLS000044645], the IC50 is 6.41 µM.

With `CC(C)OCCCNc1ncnc2c1[nH]c1ccc(F)cc12`, the IC50 was found to be 6.34 µM.

As for `C=CCOc1nc2c(c(=O)n(C)c(=O)n2C)n1Cc1ccc(Cl)cc1Cl` [7-[(2,4-dichlorophenyl)methyl]-1,3-dimethyl-8-prop-2-enoxy-purine-2,6-dione], the 50% inhibitory concentration (IC50) is more than 33 µM.

`Cc1cccc(NC(=O)CSc2nnc(-c3cc(C)n(-c4ccccc4)c3C)o2)c1C` [MLS000036049]: the 50% inhibitory concentration (IC50) came to 3.29 µM.

As for `O=C(CC=Nc1ccc2c(c1)OCO2)c1ccccn1` [(Z)-3-(1,3-benzodioxol-5-ylamino)-1-(2-pyridinyl)-2-propen-1-one], 1.5 µM corresponded to half-maximal inhibition (IC50).

For `CCN(C(=O)c1ccc(C(C)(C)C)cc1)c1nnc(Cn2nnc3ccccc32)s1` [MLS000072751], it took 7.71 µM to reach half-maximal inhibition (IC50).

As for `CNC(=O)CCc1nc(-c2ccc(C(C)(C)C)cc2)no1` [3-[3-(4-tert-butylphenyl)-1,2,4-oxadiazol-5-yl]-N-methyl-propanamide], the IC50 is 0.075 µM.

For `Cc1cccc(NC(=O)Nc2ccc(C#N)cc2)n1` [1-(4-cyanophenyl)-3-(6-methyl-2-pyridinyl)urea], inhibition was half-maximal at 6.32 µM (IC50). This IC50 is about 84-fold higher than that of the molecule before.

`Oc1c(CN2CCCCC2)cc(COCc2ccccc2)c2cccnc12` [5-(benzoxymethyl)-7-(piperidinomethyl)quinolin-8-ol] displayed an IC50 of 7.58 µM.

On to `COc1ccc(C2=Nn3c(nnc3-c3ccccc3OC)SC2)cc1OC` [BMCL181297 Compound 5A], for which the IC50 was more than 3.67 µM.

Molecule `Cn1nc(C(C)(C)C)cc1C(=O)NCc1ccc(N2CCCC2=O)cc1` [5-tert-Butyl-2-methyl-2H-pyrazole-3-carboxylic acid 4-(2-oxo-pyrrolidin-1-yl)-benzylamide] displayed a half-maximal inhibitory concentration (IC50) of 3.18 µM.

`Cc1ccc(-c2csc(N3CCC(NS(=O)(=O)c4ccc5c(c4)OCCO5)CC3)n2)cc1` [N-[1-[4-(4-methylphenyl)-1,3-thiazol-2-yl]piperidin-4-yl]-2,3-dihydro-1,4-benzodioxine-6-sulfonamide] yielded an IC50 of 5.97 µM.

The molecule `CCN(CC)c1ccc2cc(NC(=O)CCC(=O)O)c(=O)oc2c1` [4-[[7-(diethylamino)-2-keto-chromen-3-yl]amino]-4-keto-butyric acid] registered an IC50 of 6.07 µM.

Take `O=C(O)c1cccc(COc2ccc(CO)cc2Cl)c1` [3-[(2-chloro-4-methylol-phenoxy)methyl]benzoic acid]: the midpoint of inhibition, the IC50, lay at 0.329 µM.

Turning to `COc1ccc(-c2nc(CSCC(=O)NCc3ccco3)c(C)o2)cc1` [MLS000089353], the IC50 was 7.05 µM. This IC50 is about 21-fold higher than that of the molecule before.

For `C=CCOc1nc2c(c(=O)n(C)c(=O)n2C)n1Cc1ccc(Cl)cc1` [7-[(4-chlorophenyl)methyl]-1,3-dimethyl-8-prop-2-enoxy-purine-2,6-dione], the concentration for half-maximal inhibition (IC50) is more than 11 µM.

Turning to `CC1CCCCC1NS(=O)(=O)c1ccc(S(=O)(=O)NCc2ccncc2)cc1` (centres undefined) [4-N-(2-methylcyclohexyl)-1-N-(pyridin-4-ylmethyl)benzene-1,4-disulfonamide], 8.38 µM corresponded to half-maximal inhibition (IC50). In other words, the single-digit micromolar range.

As for `CCCS(=O)(=O)c1nnnn1-c1cccc(OC)c1` [1-(3-methoxyphenyl)-5-(propylsulfonyl)-1H-tetrazole], half-maximal inhibition (IC50) required 7.63 µM.

In turn, `COc1ccc(CNC(=O)c2cc3c(C)nc4ccccc4c3o2)c(OC)c1` [MLS000118441] returned an IC50 of more than 3.67 µM.

With `COc1ccc(CC(=O)Nc2cccc(-c3nnc(-c4cccc(C)c4)o3)c2)cc1OC` [2-(3,4-dimethoxyphenyl)-N-[3-[5-(3-methylphenyl)-1,3,4-oxadiazol-2-yl]phenyl]acetamide], the IC50 was determined as 5.9 µM.

The molecule `Fc1ccc2[nH]c3c(N4CCN(Cc5ccc6c(c5)OCO6)CC4)ncnc3c2c1` [4-[4-(1,3-benzodioxol-5-ylmethyl)-1-piperazinyl]-8-fluoro-5H-pyrimido[5,4-b]indole] came in with an IC50 of 3.38 µM.

`COc1ccccc1-n1nnnc1S(=O)(=O)Cc1ccc(Cl)cc1` [5-(4-chlorobenzyl)sulfonyl-1-(2-methoxyphenyl)tetrazole] showed an IC50 of 7.09 µM.

The molecule `O=C(CSc1nnc(COc2cccc3cccnc23)o1)N1CCc2ccccc21` [1-(2,3-Dihydro-indol-1-yl)-2-[5-(quinolin-8-yloxymethyl)-[1,3,4]oxadiazol-2-ylsulfanyl]-ethanone] had an IC50 of 3.97 µM. This IC50 is about 1.8-fold lower than that of the molecule before.

`CCOC(=O)N1CCN(C(=O)C2CCN(c3ncnc4c3sc3cccc(F)c34)CC2)CC1` [4-[1-(9-fluorobenzothiopheno[3,2-d]pyrimidin-4-yl)isonipecotoyl]piperazine-1-carboxylic acid ethyl ester] yielded an IC50 of 6.51 µM. Against the preceding molecule, the IC50 is about 1.6-fold higher.

For the molecule `c1ccc(-c2nc(N3CCCCCC3)c3ccccc3n2)nc1` [SMR000046752], the 50% inhibitory concentration (IC50) was 4.13 µM. This IC50 lies about 1.6-fold lower than the previous one.

Consider `Cc1ccc2[nH]c3c(N4CCCCCC4)ncnc3c2c1` [4-(azepan-1-yl)-8-methyl-5H-pyrimido[5,4-b]indole], for which the IC50 is 7.45 µM. This IC50 lies about 1.8-fold higher than the previous one.

`CCOc1cc(C(=O)N2CCc3cc(OC)c(OC)cc3C2)ccc1OC(F)F` [MLS000083614] registered an IC50 under setting [1] of 10.6 µM.

The molecule `COc1cc(CC(NC(C)=O)C(=O)NC2CCN(c3nc(C)cc(C)c3C#N)CC2)cc(OC)c1` (centres undefined) [2-Acetylamino-N-(3'-cyano-4',6'-dimethyl-3,4,5,6-tetrahydro-2H-[1,2']bipyridinyl-4-yl)-3-(3,5-dimethoxy-phenyl)-propionamide] showed an IC50 of more than 99 µM.

As for `C[C@@]1(CO)[C@H](O)CC[C@@]2(C)[C@H]1CC[C@H]1C[C@@H]3C[C@@]12CC[C@]3(O)CO` [6,13-di(hydroxymethyl)-2,6-dimethyl-(1S,2S,5R,6R,7R,10S,12R,13R)-tetracyclo[10.3.1.01,10.02,7]hexadecane-5,13-diol (Aphidicolin)], the IC50 is 0.519 µM.

`Cc1ccc(-c2cnc(NC(=O)CCC(=O)N3CCCCC3)n2C)cc1` [4-keto-N-[1-methyl-5-(p-tolyl)imidazol-2-yl]-4-piperidino-butyramide]: the IC50 was more than 99.1 µM.

For `CCn1c2ccccc2c2cc(NC(=O)CSc3nnnn3-c3ccccc3)ccc21` [MLS000051054], the IC50 was 6.74 µM.

In turn, `COc1cc(CN=O)ccc1OCc1ccc(C(=O)O)cc1` [4-[[4-(hydroximinomethyl)-2-methoxy-phenoxy]methyl]benzoic acid] gave an IC50 of 0.675 µM. Compared with the last molecule, the IC50 is about 10-fold lower.

For the molecule `O=C(OC1CCOC1=O)c1ccc(-c2nc3ccccc3s2)s1` (centres undefined) [(2-oxidanylideneoxolan-3-yl) 5-(1,3-benzothiazol-2-yl)thiophene-2-carboxylate], the midpoint of inhibition, the IC50, lay at 5.18 µM.

On to `CCc1c(C)nc2ncnn2c1NCCc1ccc(OC)cc1` [(6-Ethyl-5-methyl-[1,2,4]triazolo[1,5-a]pyrimidin-7-yl)-[2-(4-methoxy-phenyl)-ethyl]-amine], for which, under setting [1], inhibition was half-maximal at 11.6 µM (IC50).

Under setting [1], `Cc1ccc2nc(C(F)(F)F)c(C#N)c(N)c2c1` [4-amino-6-methyl-2-(trifluoromethyl)-3-quinolinecarbonitrile] came in with an IC50 of 11.6 µM.

Turning to `CCOc1ccc(OCc2cccc(C(=O)O)c2)cc1` [3-[(4-ethoxyphenoxy)methyl]benzoic acid], the IC50 worked out at 0.274 µM.

Take `COc1ccc2[nH]c(=O)c3c(c2c1)OC(C)(C)C=C3`: half-maximal inhibition under setting [1] (IC50) was put at 16.5 µM.

`Nc1cccc(-c2nc3ccc(N)cc3s2)c1` [2-(3-Amino-phenyl)-benzothiazol-6-ylamine] yielded an IC50 of more than 3.67 µM.

In turn, `COc1ccc(CCNc2nnc(Sc3nnnn3-c3ccccc3)s2)cc1OC` [MLS000056567] came in with an IC50 of 7.21 µM.

`O=c1c2ccccc2cnn1-c1nc2ccccc2s1` [2-(1,3-benzothiazol-2-yl)-1-phthalazinone] registered an IC50 of 0.728 µM.

In the case of `O=C(Nc1nc2ccccc2[nH]1)c1ccc(F)cc1` [N-1,3-dihydro-2H-benzimidazol-2-ylidene-4-fluorobenzamide], the IC50 is more than 11 µM.

Consider `COc1cc(CSc2nnnn2-c2ccc(C)cc2)cc(OC)c1OC` [1-(4-methylphenyl)-5-[(3,4,5-trimethoxybenzyl)thio]-1H-tetrazole], for which the IC50 worked out at 4.52 µM. This counts as single-digit micromolar.

Regarding `COCCn1c(C)cc(C(=O)COC(=O)c2[nH]nc3ccccc23)c1C` [SMR000068187], the IC50 stood at 8.16 µM.

As for `COc1ccc(C(=O)Nn2c(SCC(=O)NCc3ccco3)nc3ccccc3c2=O)cc1` [MLS000097349], it took 5.3 µM to reach half-maximal inhibition (IC50).
